# What was measured:
# RBL-FMB cells [1] = experiment: TIRF based mitosis monitoring system, cells treated with TAXOL; format: cell-based, rat
# Method: Rat Basophilic Leukemia Cells (RBL) were grown in Dulbecco's modified Eagles Media (DMEM) supplemented with 10% fetal calf serum, 2 mM glutamine, 100 U/ml penicillin, and 100 μg/ml streptomycin (all from Invitrogen, Carlsbad, Calif.). 10 million cells were electroporated (BioRad, Hercules, Calif.) in 600 μl of media with 40 μg of pFMB. These were allowed to recover for 48 hours and cells stably expressing the biosensor were selected for by the addition of 1 μg/ml Geneticin (Invitrogen, Carlsbad, Calif.). 10 days after the addition of Geneticin the cells were sorted based on EYFP fluorescence using a fluorescence activated cell sorter.
# TIRF microscopy was carried out as described previously (Tengholm et al., Science's Stke. 2003 PL4 (2004)). Briefly, an argon-ion laser provided 514-nm laser light for excitation of the biosensor (Lexel Laser, Fremont, Calif.). Exposure of the RBL-FMBs to laser light was controlled by a Uniblitz shutter (Vincent, Rochester, N.Y.). Laser light homogenized with a rotating diffuser (Physical Optics, Torrance, Calif.) was refocused onto a dove prism at an angle yielding total internal reflection (>[…] for a glass-water interface at 37° C.). The excitation light could also be redirected to the back of the microscope and down to the sample via appropriate dichroic mirrors (Chroma Technology, Brattleboro, Vt.) for epi-illumination. Fluorescence was recorded at 530 nm with bandpass interference filters (30-50 nm half-bandwidth; Chroma Technology, Brattleboro, Vt.) mounted in a Sutter Lambda 10-2 filter wheel (Sutter Instrument, Novato, Calif.). Images were captured every 2 minutes with a cooled CCD camera (Micromax; Roper Scientific, Tuscon, Azir.). The shutters, filter wheel, and camera were controlled by Metamorph software (Universal Imaging, Downington, Pa.).
# Both systems were heated with an ASI 400 Air Stream Incubator (Nevtek, Burnsville, Va.). The cells were perfused with fresh growth media saturated with 10% CO2 that was heated with an inline solution heater (Warner Instruments, Hamden, Conn.).
# Metamorph software (Universal Imaging, Downington Pa.) was used for data image analysis. Fluorescence intensity was recorded over the entire stack of images by drawing regions of interest over each mitotic cell. Background correction was performed by subtracting the intensity of a background region of identical size next to each cell to account for the somewhat uneven background in the field of view over the time of the data collection. Background corrected intensity values were exported to a Microsoft Excel file and plotted. NEB was determined as the time just prior to the dramatic increase in fluorescence intensity. Anaphase onset is defined as the time point immediately preceding the second smaller increase in fluorescence. NER was determined as the point in time when fluorescence intensity starts to decrease back to baseline levels.
# RBL-FMB cells [2] = experiment: Mitotic index by immunofluorescence; format: cell-based, rat; conditions: 20 hours
# Method: Mitotic index was determined as previously described (Jordan et al., […] 56:816-825 (1996)). Briefly, 15,000 RBL-FMB cells plated in 8 well Labtek chambers (Nalge Nunc, Naperville, Ill.) and exposed to paclitaxel (Sigma Aldrich, St Louis) for 20 hours. The cells were fixed and permeablized with −20° C. cold methanol for 5 minutes at −20° C. They were blocked with 10% fetal calf serum in PBS for 10 minutes at RT. Alpha Tubulin was detected with a mouse monoclonal antibody clone GTU-88 (Sigma Aldrich, St. Louis Mo.). DNA was stained with Hoescht 33342 (Molecular Probes, Eugene, Oreg.). Only cells that were clearly in metaphase or anaphase were counted as a percentage of the total. The cells were imaged with a Zeiss epifluorescence microscope (Carl Zeiss, Germany).
# Hela cells = conditions: cited from earlier work
smiles,measurement,setting,value
"CC(=O)O[C@H]1C(=O)[C@@]2(C)[C@H]([C@H](OC(=O)c3ccccc3)[C@]3(O)C[C@H](OC(=O)[C@H](O)[C@@H](NC(=O)c4ccccc4)c4ccccc4)C(C)=C1C3(C)C)[C@]1(OC(C)=O)CO[C@@H]1C[C@@H]2O [TAXOL™, paclitaxel]",Mitotic arrest,RBL-FMB cells [1]; 10 nM,arrested for the duration of the experiment
same,Anaphase-NER Ave.,RBL-FMB cells [1]; [Taxol] 0.01,8.4 min
same,Anaphase-NER Med.,RBL-FMB cells [1]; [Taxol] 0.01,8 min
same,NEB-NER Med.,RBL-FMB cells [1]; [Taxol] 0.01,34 min
same,NEB-anaphase Ave.,RBL-FMB cells [1]; [Taxol] 0.01,28.4 min
same,NEB-anaphase Med.,RBL-FMB cells [1]; [Taxol] 0.01,26 min
same,NEB-NER Ave.,RBL-FMB cells [1]; [Taxol] 0.01 (10 pM in text),35.6 min
same,Anaphase-NER Ave.,RBL-FMB cells [1]; [Taxol] 0.1,8.8 min
same,Anaphase-NER Med.,RBL-FMB cells [1]; [Taxol] 0.1,8 min
same,NEB-NER Ave.,RBL-FMB cells [1]; [Taxol] 0.1,38.1 min
same,NEB-NER Med.,RBL-FMB cells [1]; [Taxol] 0.1,36 min
same,NEB-anaphase Ave.,RBL-FMB cells [1]; [Taxol] 0.1,29.6 min
same,NEB-anaphase Med.,RBL-FMB cells [1]; [Taxol] 0.1,26 min
same,Anaphase-NER Ave.,RBL-FMB cells [1]; [Taxol] 1,10.3 min
same,Anaphase-NER Med.,RBL-FMB cells [1]; [Taxol] 1,10 min
same,NEB-NER Ave.,RBL-FMB cells [1]; [Taxol] 1,40.0 min
same,NEB-NER Med.,RBL-FMB cells [1]; [Taxol] 1,38 min
same,NEB-anaphase Ave.,RBL-FMB cells [1]; [Taxol] 1,29.8 min
same,NEB-anaphase Med.,RBL-FMB cells [1]; [Taxol] 1,28 min
same,Anaphase-NER Ave.,RBL-FMB cells [1]; [Taxol] 3,10.3 min
same,Anaphase-NER Med.,RBL-FMB cells [1]; [Taxol] 3,8 min
same,NEB-NER Ave.,RBL-FMB cells [1]; [Taxol] 3,62.8 min
same,NEB-NER Med.,RBL-FMB cells [1]; [Taxol] 3,50 min
same,NEB-anaphase Ave.,RBL-FMB cells [1]; [Taxol] 3,44.6 min
same,NEB-anaphase Med.,RBL-FMB cells [1]; [Taxol] 3,34 min
same,Anaphase-NER Ave.,RBL-FMB cells [1]; [Taxol] 4,9.8 min
same,Anaphase-NER Med.,RBL-FMB cells [1]; [Taxol] 4,10 min
same,NEB-NER Ave.,RBL-FMB cells [1]; [Taxol] 4,89.7 min
same,NEB-NER Med.,RBL-FMB cells [1]; [Taxol] 4,70 min
same,NEB-anaphase Ave.,RBL-FMB cells [1]; [Taxol] 4,77.7 min
same,NEB-anaphase Med.,RBL-FMB cells [1]; [Taxol] 4,60 min
same,Anaphase-NER Ave.,RBL-FMB cells [1]; [Taxol] 5,11.3 min
same,Anaphase-NER Med.,RBL-FMB cells [1]; [Taxol] 5,12 min
same,NEB-NER Ave.,RBL-FMB cells [1]; [Taxol] 5,112.2 min
same,NEB-NER Med.,RBL-FMB cells [1]; [Taxol] 5,102 min
same,NEB-anaphase Ave.,RBL-FMB cells [1]; [Taxol] 5,107.4 min
same,NEB-anaphase Med.,RBL-FMB cells [1]; [Taxol] 5,114 min
same,Anaphase-NER Ave.,RBL-FMB cells [1]; [Taxol] 6,13.3 min
same,Anaphase-NER Med.,RBL-FMB cells [1]; [Taxol] 6,11 min
same,NEB-NER Ave.,RBL-FMB cells [1]; [Taxol] 6,194.5 min
same,NEB-NER Med.,RBL-FMB cells [1]; [Taxol] 6,186 min
same,NEB-anaphase Ave.,RBL-FMB cells [1]; [Taxol] 6,183.3 min
same,NEB-anaphase Med.,RBL-FMB cells [1]; [Taxol] 6,175 min
same,Anaphase-NER Ave.,RBL-FMB cells [1]; [Taxol] 7.5,12.3 min
same,Anaphase-NER Med.,RBL-FMB cells [1]; [Taxol] 7.5,12 min
same,NEB-NER Ave.,RBL-FMB cells [1]; [Taxol] 7.5,202.1 min
same,NEB-NER Med.,RBL-FMB cells [1]; [Taxol] 7.5,195 min
same,NEB-anaphase Ave.,RBL-FMB cells [1]; [Taxol] 7.5,171.1 min
same,NEB-anaphase Med.,RBL-FMB cells [1]; [Taxol] 7.5,166 min
same,Anaphase-NER Ave.,RBL-FMB cells [1]; [Taxol] 8,12.1 min
same,Anaphase-NER Med.,RBL-FMB cells [1]; [Taxol] 8,12 min
same,NEB-NER Ave.,RBL-FMB cells [1]; [Taxol] 8,192.7 min
same,NEB-NER Med.,RBL-FMB cells [1]; [Taxol] 8,189 min
same,NEB-anaphase Ave.,RBL-FMB cells [1]; [Taxol] 8,180.3 min
same,NEB-anaphase Med.,RBL-FMB cells [1]; [Taxol] 8,178 min
same,anaphase to NER phase (post-checkpoint),RBL-FMB cells [1]; increasing TAXOL,smaller and ungraded effects
same,timing between NEB and anaphase (pre-checkpoint mitosis phase),RBL-FMB cells [1]; increasing TAXOL,significantly prolonged
same,percentage of mitotic cells (mitotic index),RBL-FMB cells [2]; higher taxol concentrations,increased
same,effects on mitotic index,RBL-FMB cells [2]; low TAXOL concentrations,went unseen
same,"microtubule stabilization effect, concentration range",Hela cells,nM concentration range
